Data taken from US20240225981A1, “Synthesized Molecule of Solketal Esters from Palm Kit Oil and Glycerin for Cosmetic and Agricultural Formulations” (BRASIL BIO FUELS S.A, priority 2023, published 2024).
“Also recorded” adds a separate entry of the source.

Columns and labels:
skin = assay: Skin irritation tests (OECD and GHS); format: in vivo; conditions: OECD and GHS standards; non-irritating in 2 tests, one test mild
Description: Two new batches of cocoyl glyceryl solketal were sent to confirm dermal irritation tests.

eye = assay: Eye irritation tests (OECD and GHS); format: in vivo; conditions: OECD and GHS standards
Description: In eye irritation tests, the product was classified as non-irritating according to OECD and GHS standards.

Cocoyl glyceryl solketal
Skin irritation classification (skin): non-irritating; also recorded: mild dermal irritation
Eye irritation classification (eye): non-irritating
